Measured values published in PubChem BioAssay AID504328 (The Scripps Research Institute Molecular Screening Center, 2011).
The source made the active and inactive calls.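 How the source made its calls: active means EC50 at or below 10 µM; inactive means EC50 above 10 µM.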

Biological target: Caspase-3 (Homo sapiens) (UniProt P42574)
Experiment: activators of human procaspase-3 D3A mutant – biochemical, absorbance, PC-3 D3A mutant, counter-screen for dual procaspase-3/7 activator project, dose response (AID 504328)
Conditions: recombinant PC-3 D3A, Ac-DEVD-pNA absorbance 405 nm

Caspase-3 (Homo sapiens), sequence (P42574 whole entry D9A/D28A/D175A): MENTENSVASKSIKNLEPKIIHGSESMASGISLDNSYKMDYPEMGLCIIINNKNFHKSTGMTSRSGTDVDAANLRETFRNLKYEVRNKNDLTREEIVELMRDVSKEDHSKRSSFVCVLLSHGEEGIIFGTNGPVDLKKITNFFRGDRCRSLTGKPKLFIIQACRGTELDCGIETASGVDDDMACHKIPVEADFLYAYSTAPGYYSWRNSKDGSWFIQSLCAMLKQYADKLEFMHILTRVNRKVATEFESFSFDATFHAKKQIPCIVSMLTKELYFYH

- EC50: > 85.3 µM (inactive)
Compound: CCOc1ccc(N=CC2=C(O)CC(c3ccco3)CC2=O)cc1 (stereo unspecified)
